Assay results: ChEMBL document CHEMBL1134151, “Solution-phase, parallel synthesis and pharmacological evaluation of acylguanidine derivatives as potential sodium channel blockers” (Bioorg Med Chem Lett, 2001)

Columns and labels:
[1] = target: Sodium channel protein type 5 subunit alpha (Homo sapiens, UniProt Q14524); experiment: Inhibition of sodium channel blockade in CHO cells expressing human cardiac (hHI) sodium channel; type: cell-based
[2] = target: Sodium channel protein type 2 subunit alpha (Homo sapiens, UniProt Q99250); experiment: Inhibition of sodium channel blockade in CHO cells expressing neuronal mammalian type IIA (CNaIIA) sodium channel; type: cell-based
Sequence of Sodium channel protein type 2 subunit alpha (Q99250 whole entry): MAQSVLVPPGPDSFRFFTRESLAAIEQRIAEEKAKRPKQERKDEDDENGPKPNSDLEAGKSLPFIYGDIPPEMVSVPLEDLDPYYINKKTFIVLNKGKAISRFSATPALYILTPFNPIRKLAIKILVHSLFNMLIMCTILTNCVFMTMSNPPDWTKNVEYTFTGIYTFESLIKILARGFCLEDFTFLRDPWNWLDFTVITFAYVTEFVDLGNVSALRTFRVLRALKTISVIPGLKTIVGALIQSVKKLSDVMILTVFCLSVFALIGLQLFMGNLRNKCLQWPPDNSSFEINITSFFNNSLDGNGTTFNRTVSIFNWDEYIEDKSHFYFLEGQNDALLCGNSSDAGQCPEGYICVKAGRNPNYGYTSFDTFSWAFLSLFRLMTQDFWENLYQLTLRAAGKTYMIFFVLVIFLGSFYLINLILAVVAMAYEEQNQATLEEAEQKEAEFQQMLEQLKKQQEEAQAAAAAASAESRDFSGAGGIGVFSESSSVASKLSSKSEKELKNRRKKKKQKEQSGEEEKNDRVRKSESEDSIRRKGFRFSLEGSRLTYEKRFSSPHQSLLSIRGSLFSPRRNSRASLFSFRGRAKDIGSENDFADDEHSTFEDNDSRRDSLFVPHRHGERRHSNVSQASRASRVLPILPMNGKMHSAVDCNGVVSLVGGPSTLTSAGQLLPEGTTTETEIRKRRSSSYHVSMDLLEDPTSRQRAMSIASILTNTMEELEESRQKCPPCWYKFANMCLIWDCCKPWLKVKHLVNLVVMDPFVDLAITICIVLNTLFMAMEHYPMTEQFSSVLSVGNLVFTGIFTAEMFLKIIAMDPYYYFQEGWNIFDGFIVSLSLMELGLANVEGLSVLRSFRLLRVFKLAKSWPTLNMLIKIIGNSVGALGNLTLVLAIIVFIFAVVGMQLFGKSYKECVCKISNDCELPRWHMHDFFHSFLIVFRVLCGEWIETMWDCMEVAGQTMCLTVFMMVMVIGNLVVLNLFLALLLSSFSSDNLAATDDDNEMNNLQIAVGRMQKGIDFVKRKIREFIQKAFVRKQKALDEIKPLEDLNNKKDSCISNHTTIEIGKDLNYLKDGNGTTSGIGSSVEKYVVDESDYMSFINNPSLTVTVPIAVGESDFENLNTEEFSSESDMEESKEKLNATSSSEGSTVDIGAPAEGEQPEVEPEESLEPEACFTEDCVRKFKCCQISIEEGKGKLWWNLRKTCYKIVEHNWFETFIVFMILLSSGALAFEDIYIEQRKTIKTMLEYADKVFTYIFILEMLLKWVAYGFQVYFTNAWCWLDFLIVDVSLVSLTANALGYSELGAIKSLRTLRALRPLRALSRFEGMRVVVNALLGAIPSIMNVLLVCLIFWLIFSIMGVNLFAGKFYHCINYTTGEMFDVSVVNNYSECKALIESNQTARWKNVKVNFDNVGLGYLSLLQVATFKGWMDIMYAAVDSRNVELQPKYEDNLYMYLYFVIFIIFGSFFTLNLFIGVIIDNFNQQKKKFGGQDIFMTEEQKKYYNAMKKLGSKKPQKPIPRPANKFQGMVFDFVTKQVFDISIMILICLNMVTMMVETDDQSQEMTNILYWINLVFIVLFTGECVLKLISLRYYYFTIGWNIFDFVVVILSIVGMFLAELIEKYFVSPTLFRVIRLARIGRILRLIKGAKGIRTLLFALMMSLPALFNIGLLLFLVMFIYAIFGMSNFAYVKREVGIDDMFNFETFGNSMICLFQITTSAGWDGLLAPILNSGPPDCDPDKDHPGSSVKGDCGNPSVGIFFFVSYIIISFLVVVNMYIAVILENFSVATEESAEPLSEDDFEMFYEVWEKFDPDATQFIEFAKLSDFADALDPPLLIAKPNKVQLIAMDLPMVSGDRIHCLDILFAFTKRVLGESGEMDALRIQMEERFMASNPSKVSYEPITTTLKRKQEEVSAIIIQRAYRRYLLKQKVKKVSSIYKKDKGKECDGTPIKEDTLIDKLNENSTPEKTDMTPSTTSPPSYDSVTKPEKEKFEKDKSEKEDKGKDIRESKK

Mus musculus = experiment: In vivo anticonvulsant activity tested as percent inhibition of audiogenic antiseizure in DBA/2 mice at a dose of 20 mg/kg, ip; type: functional; details: route intraperitoneal
[3] = Partition coefficient (logD); type: physicochemical; details: octanol/water
[4] = pKa value determined; type: physicochemical

Sequence of Sodium channel protein type 5 subunit alpha (Q14524 whole entry): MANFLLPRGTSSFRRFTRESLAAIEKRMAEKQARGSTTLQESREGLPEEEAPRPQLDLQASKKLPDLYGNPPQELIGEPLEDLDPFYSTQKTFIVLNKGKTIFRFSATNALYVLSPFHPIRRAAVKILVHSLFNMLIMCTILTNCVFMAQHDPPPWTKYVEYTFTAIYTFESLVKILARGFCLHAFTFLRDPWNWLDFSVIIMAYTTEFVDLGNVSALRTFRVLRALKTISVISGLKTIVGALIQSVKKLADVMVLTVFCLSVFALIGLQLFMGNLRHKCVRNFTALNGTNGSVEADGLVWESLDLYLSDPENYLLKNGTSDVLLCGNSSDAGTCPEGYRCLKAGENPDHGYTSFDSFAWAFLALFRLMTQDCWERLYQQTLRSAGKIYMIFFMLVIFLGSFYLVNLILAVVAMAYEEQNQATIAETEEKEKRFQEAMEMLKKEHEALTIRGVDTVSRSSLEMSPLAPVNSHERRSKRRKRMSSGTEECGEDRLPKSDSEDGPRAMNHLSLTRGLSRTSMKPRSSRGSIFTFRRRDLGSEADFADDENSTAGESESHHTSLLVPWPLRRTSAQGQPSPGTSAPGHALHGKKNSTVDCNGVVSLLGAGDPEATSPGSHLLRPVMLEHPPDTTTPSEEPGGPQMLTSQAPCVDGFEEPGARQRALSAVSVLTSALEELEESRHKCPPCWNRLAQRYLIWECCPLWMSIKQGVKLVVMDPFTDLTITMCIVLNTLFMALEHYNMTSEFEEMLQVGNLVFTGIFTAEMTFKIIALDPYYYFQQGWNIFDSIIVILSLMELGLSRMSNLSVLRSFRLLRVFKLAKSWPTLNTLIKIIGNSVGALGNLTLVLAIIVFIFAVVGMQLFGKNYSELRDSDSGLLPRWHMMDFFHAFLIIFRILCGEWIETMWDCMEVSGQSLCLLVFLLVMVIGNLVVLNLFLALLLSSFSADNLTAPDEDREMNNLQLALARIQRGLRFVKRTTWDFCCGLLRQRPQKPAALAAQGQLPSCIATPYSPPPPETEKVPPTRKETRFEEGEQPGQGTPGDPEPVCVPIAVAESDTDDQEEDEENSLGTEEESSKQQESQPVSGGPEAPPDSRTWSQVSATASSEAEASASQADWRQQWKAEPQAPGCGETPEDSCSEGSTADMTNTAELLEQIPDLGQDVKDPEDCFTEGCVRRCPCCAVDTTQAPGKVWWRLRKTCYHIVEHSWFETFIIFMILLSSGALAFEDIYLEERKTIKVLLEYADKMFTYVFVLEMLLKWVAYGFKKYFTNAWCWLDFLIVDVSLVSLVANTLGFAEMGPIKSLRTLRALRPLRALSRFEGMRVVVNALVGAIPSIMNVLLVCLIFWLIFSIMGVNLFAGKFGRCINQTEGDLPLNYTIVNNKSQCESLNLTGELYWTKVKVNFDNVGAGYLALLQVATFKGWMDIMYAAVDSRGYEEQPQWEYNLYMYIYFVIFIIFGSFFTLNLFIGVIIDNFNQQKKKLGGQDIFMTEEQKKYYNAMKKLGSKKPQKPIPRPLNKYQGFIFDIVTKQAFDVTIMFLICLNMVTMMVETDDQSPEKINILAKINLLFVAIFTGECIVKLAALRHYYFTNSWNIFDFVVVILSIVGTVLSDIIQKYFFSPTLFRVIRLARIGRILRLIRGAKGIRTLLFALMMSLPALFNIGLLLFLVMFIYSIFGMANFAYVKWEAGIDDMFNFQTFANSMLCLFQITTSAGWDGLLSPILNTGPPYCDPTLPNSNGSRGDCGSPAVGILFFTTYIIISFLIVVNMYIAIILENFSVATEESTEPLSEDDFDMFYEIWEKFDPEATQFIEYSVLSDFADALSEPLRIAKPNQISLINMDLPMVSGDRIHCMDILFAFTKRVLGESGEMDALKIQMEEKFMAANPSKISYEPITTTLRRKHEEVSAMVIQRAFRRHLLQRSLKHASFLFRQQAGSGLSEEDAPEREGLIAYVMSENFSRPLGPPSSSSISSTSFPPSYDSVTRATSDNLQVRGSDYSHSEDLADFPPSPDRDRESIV

Row | IC50 [2] | logD [3] | pKa [4] | Compound | IC50 [1] | inhibition in vivo at 20 mg/kg (Mus musculus)
1 | 4.36 µM | – | – | Cc1ccc(C(=O)N/C(N)=N\c2ccccc2C(C)C)cc1 | 4.5 µM | –
2 | 6.03 µM | – | – | Cc1ccc(C(=O)NC(=N)NCCCc2ccccc2)cc1 | 5.25 µM | –
3 | 3.29 µM | – | – | Cc1ccc(C(=O)NC(=N)Nc2cccc3ccccc23)cc1 | – | –
4 | 3.23 µM | – | – | Cc1ccc(C(=O)NC(N)=NCCOc2ccccc2)cc1 | 14.2 µM | –
5 | 2.11 µM | – | – | Cc1ccc(C(=O)NC(=N)NCCCCCc2ccccc2)cc1 | 3.6 µM | 7%
6 | 2.66 µM | – | – | Cc1ccc(C(=O)NC(N)=NCCc2ccccc2)cc1 | 5.65 µM | –
7 | 1.95 µM | 4.4 | 6.35 | Cc1ccc(C(=O)NC(=N)Nc2ccc(C(C)C)cc2)cc1 | 19.7 µM | 30%
8 | 9.45 µM | – | – | Cc1ccc(C(=O)NC(=N)N(C)c2cccc(I)c2)cc1 | – | –
9 | 2.38 µM | – | – | Cc1ccc(C(=O)NC(N)=NCc2cccc3ccccc23)cc1 | 8.85 µM | –
10 | 1.14 µM | – | 7.09 | Cc1ccc(C(=O)NC(=N)NCCCCc2ccccc2)cc1 | 2.85 µM | 75%
11 | 2.67 µM | – | – | Cc1ccc(C(=O)NC(N)=NCCCOc2ccccc2)cc1 | 5.6 µM | 54%
12 | 3.87 µM | – | – | Cc1ccc(C(=O)NC(N)=NCc2ccccc2)cc1 | – | –
13 | 5.44 µM | – | – | Cc1ccc(C(=O)NC(=N)N(C)Sc2cccc(C)c2)cc1 | – | –
14 | 3.9 µM | – | – | Cc1ccc(C(=O)NC(N)=NCCSCc2ccccc2)cc1 | 10.8 µM | –
15 | 4.16 µM | – | – | CN=C(NCCCCc1ccccc1)NC(=O)c1ccc(C)cc1 | 9 µM | –
16 | 8.81 µM | – | – | Cc1ccc(C(=O)NC(=N)N2CCc3ccccc32)cc1 | > 100 µM | 16%

The next lines start with the compound.

Row | Compound | IC50 [2] | logD [3] | pKa [4] | IC50 [1] | inhibition in vivo at 20 mg/kg (Mus musculus)
17 | COc1cc(NC(=N)NC(=O)c2ccc(C)cc2)cc(OC)c1OC | 1.92 µM | – | – | 24.4 µM | –
18 | Cc1ccc(C(=O)NC(=N)Nc2ccc(OC(C)C)cc2)cc1 | 2.02 µM | – | – | 5.75 µM | –
19 | Cc1ccc(C(=O)NC(N)=Nc2cc(Br)ccc2Br)cc1 | > 25 µM | – | – | – | –
20 | Cc1ccccc1C(=O)NC(N)=NCCCCc1ccccc1 | 1.2 µM | – | – | 1.75 µM | 53%
21 | Cc1ccc(C(=O)NC(=N)Nc2ccc(OCc3ccccc3)cc2)cc1 | 10.1 µM | – | – | – | –
22 | NC(=NCCCCc1ccccc1)NC(=O)c1ccc(Cl)c(Cl)c1 | 7.11 µM | – | – | 15.5 µM | –
23 | Cc1ccc(C(=O)NC(=N)NCCc2cccs2)cc1 | 4.95 µM | – | – | 10.5 µM | –
24 | CCCCOc1ccc(C(=O)NC(N)=NCCCCc2ccccc2)cc1 | 0.63 µM | – | – | 0.56 µM | 97%
25 | N=C(NCCCCc1ccccc1)NC(=O)c1cccs1 | 4.31 µM | – | – | 2.35 µM | –
26 | CCOc1ccc(C(=O)NC(N)=NCCCCc2ccccc2)cc1 | 0.76 µM | – | – | 1.1 µM | 60%
27 | NC(=NCCCCc1ccccc1)NC(=O)c1cccc(Cl)c1Cl | 1.48 µM | – | – | 2.71 µM | –
28 | NC(=NCCCCc1ccccc1)NC(=O)c1ccco1 | 13.8 µM | – | – | 7.9 µM | 5%
29 | COc1cc(C(=O)NC(N)=NCCCCc2ccccc2)cc(OC)c1OC | 1.39 µM | – | – | 1.51 µM | –
30 | NC(=NCCCCc1ccccc1)NC(=O)c1c(Cl)cccc1Cl | 5.03 µM | – | – | 5.4 µM | –
31 | Cc1ccc(C(=O)NC(=N)N2CCCc3ccc(C(F)(F)F)cc32)cc1 | > 25 µM | – | – | – | –
32 | Cc1ccc(C(=O)NC(=N)Nc2ccc(C(C)(C)C)cc2)cc1 | > 24 µM | – | – | – | –
33 | NC(=NCCCCc1ccccc1)NC(=O)c1cccc2ccccc12 | 0.86 µM | – | – | 4.1 µM | 9%
34 | N=C(N)NC(=O)c1ccccc1 | – | – | 6.98 | – | –
35 | Cc1ccc(C(=O)NC(N)=NCCCN(C)C)cc1 | > 25 µM | – | – | – | –
36 | COc1cccc2[nH]cc(CCN=C(N)NC(=O)c3ccc(C)cc3)c12 | 3.35 µM | – | – | 3.92 µM | –
37 | Cc1ccc(C(=O)NC(N)=NCCc2ccc(Cl)cc2)cc1 | 1.97 µM | – | – | 8.5 µM | –
38 | COc1ccc(C(=O)NC(=N)NCCCCc2ccccc2)cc1 | 0.82 µM | – | – | 2.1 µM | 42%
39 | NC(=NCCCCc1ccccc1)NC(=O)c1ccc(Cl)cc1 | 4.3 µM | – | – | 3.6 µM | –
40 | COc1ccc2[nH]cc(CCN=C(N)NC(=O)c3ccc(C)cc3)c2c1 | 1.76 µM | – | – | 1.76 µM | –
41 | NC(=NCCCCc1ccccc1)NC(=O)c1cc(Cl)ccc1Cl | 3.25 µM | – | – | 7.89 µM | –
42 | CCCC/N=C(/N)NC(=O)c1ccc(C)cc1 | 17.4 µM | – | – | 9 µM | –
43 | N=C(N)N [GUANIDINE] | – | – | 12.6 | – | –
44 | N=C(N)Nc1ccccc1 [PHENYLGUANIDINE] | – | – | 10.8 | – | –
